Test results as given in the NIST ThermoML archive (doi:10.1016/j.jct.2012.08.014).

Details: Liquid, Vibrating tube method

CC(O)CO (stereo not drawn) [1,2-propanediol]
mass density [kg/m3]
Details | 278.15 K | 288.15 K | 298.15 K | 308.15 K | 318.15 K
100 kPa | 1047.1 | 1039.9 | 1032.5 | 1025.3 | 1017.7
1000 kPa | 1047.3 | 1040.2 | 1032.9 | 1025.5 | 1018
5000 kPa | 1049.2 | 1042.1 | 1034.8 | 1027.5 | 1020.2
10000 kPa | 1051.2 | 1044.4 | 1037.2 | 1030.1 | 1022.8
15000 kPa | 1053.4 | 1046.7 | 1039.6 | 1032.5 | 1025.4
20000 kPa | 1055.5 | 1048.9 | 1041.9 | 1034.9 | 1027.9
25000 kPa | 1057.6 | 1051.1 | 1044.1 | 1037.2 | 1030.3
30000 kPa | 1059.6 | 1053.2 | 1046.3 | 1039.5 | –
35000 kPa | 1061.6 | 1055.4 | 1048.4 | 1041.6 | –
40000 kPa | 1063.6 | 1057.4 | 1050.6 | 1043.8 | –
45000 kPa | 1065.6 | 1059.4 | 1052.5 | 1046 | –
50000 kPa | 1067.5 | 1061.4 | 1054.6 | 1048.1 | –
55000 kPa | 1069.3 | 1063.4 | 1056.6 | 1050.1 | –
60000 kPa | 1071.4 | 1065.3 | 1058.5 | 1052.2 | –
